How the values were obtained:
testosterone [1] = experiment: Serum/plasma testosterone concentration in male dogs after oral or intravenous dosing; format: in vivo; conditions: for plasma concentration of testosterone: single intravenous dose of approximately 26 umoles/kg
cortisol = experiment: Plasma cortisol concentration in male dogs; format: in vivo; conditions: for plasma cortisol concentration: single intravenous dose of approximately 26 umoles/kg
Excerpt: (§1) This effect was reversible and was associated with a reduction in serum concentration of luteinizing hormone (LH).

estradiol = experiment: Plasma estradiol concentration in male dogs; format: in vivo; conditions: for plasma estradiol concentration: single intravenous dose of approximately 26 umoles/kg
Excerpt: as §1

testosterone [2] = experiment: Plasma testosterone concentration in male rats after oral dosing; format: in vivo; conditions: for plasma testosterone concentration: four daily oral doses ≥100 mg/kg, 4 hours after the last dose
Description: (§2) Four daily oral doses ≥100 mg/kg (S)-(-)-N-(α-Ethylbenzyl)-3-(3-carboxy)propoxy-2-phenylquinoline-4-carboxamide or (S)-(-)-N-(α-Ethylbenzyl)-3-carboxymethoxy-2-phenylquinoline-4-carboxamide reduced the plasma testosterone concentration of male rats when measured at 4 hours after the last dose. […] Reductions in plasma testosterone also occurred in male rats following single oral doses of 30 to 1000 mg/kg (S)-(-)-N-(α-Ethylbenzyl)-3-carboxymethoxy-2-phenylquinoline-4-carboxamide. Stimulation of testosterone production in vivo by a LH agonist (human chorionic gonadotropin) was not blocked by a single oral dose of 1000 mg/kg (S)-(-)-N-(α-Ethylbenzyl)-3-carboxymethoxy-2-phenylquinoline-4-carboxamide in male rats.

testosterone production = experiment: Stimulation of testosterone production in vivo by a LH agonist (human chorionic gonadotropin) in male rats; conditions: single oral dose of 1000 mg/kg
Description: as §2

LH = experiment: Plasma LH concentration in male rats after oral dosing; format: in vivo; conditions: four daily oral doses of 300 mg/kg, 4 hours after the last dose
Description: as §2

reproductive organs [3] = experiment: Once daily oral administration for 2 weeks, reproductive organ effects in male mice; format: in vivo; conditions: 0.1 to 1000 mg/kg per day
Description: (§3) Once daily oral administration of ((S)-(-)-N-(α-Ethylbenzyl)-3-hydroxy-2-phenylquinoline-4-carboxamide) for 1 month to male rats or for 2 weeks to male mice had no effect on the weights and/or histologic appearance of the reproductive organs. The daily doses ranged from 0.1 to 1000 mg/kg per day.

reproductive organs [4] = experiment: Once daily oral administration for 1 month, reproductive organ effects in male rats; format: in vivo; conditions: 0.1 to 1000 mg/kg per day
Description: as §3

CYP17A1 = molecular target: T1, CYP17A1 (Canis lupus familiaris, UniProt A0A8I3PR85); experiment: Enzyme inhibition in lysed dog Leydig cells; format: biochemical
T1 construct: using lysed dog Leydig cells; from tissue; host or cells: lysate of primary Leydig cells isolated from dog testes
T1 sequence (A0A8I3PR85 19-509): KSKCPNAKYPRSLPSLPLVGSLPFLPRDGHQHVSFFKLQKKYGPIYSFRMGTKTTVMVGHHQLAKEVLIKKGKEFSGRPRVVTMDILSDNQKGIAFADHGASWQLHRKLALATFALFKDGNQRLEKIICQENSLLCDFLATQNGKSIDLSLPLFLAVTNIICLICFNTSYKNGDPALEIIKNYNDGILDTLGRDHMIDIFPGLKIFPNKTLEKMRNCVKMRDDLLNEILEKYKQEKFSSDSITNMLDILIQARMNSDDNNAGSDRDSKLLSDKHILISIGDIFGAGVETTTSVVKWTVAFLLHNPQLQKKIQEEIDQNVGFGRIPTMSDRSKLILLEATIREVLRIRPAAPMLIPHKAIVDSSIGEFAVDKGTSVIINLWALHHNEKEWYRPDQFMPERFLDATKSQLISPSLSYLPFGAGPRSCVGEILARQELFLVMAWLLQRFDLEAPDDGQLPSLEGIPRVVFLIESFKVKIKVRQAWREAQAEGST
Description: This effect occurred at incubation concentrations between 10 and 100 uM. […] Neither (S)-(-)-N-(α-Ethylbenzyl)-3-carboxymethoxy-2-phenylquinoline-4-carboxamide nor (S)-(-)-N-(α-Ethylbenzyl)-3-(3-carboxy)propoxy-2-phenylquinoline-4-carboxamide inhibited testosterone synthesis in Leydig cells isolated from the testis of the rat at the highest incubation concentration tested (300 uM). In contrast, (+)-(R)-3-[3-(4-Phenyl-4-N-methylacetamidopiperidin-1-yl)propyl]-3-(3,4-dichlorophenyl)-1-benzoylpiperidine, and (S)-(-)-N-(α-Ethylbenzyl)-3-[(4-methylpiperazin-1-yl)methyl]-2-phenylquinoline-4-carboxamide inhibited testosterone synthesis of isolated rat Leydig cells at incubation concentrations between 3 and 300 uM.

androstenedione = experiment: Plasma androstenedione concentration in male dogs; format: in vivo; conditions: single oral dose of 300 mg/kg
Excerpt: as §1

testes and prostate = experiment: Once daily oral administration for 1 month, reproductive organ effects in male beagle dogs; format: in vivo
Description: Once daily oral administration of ((S)-(-)-N-(α-Ethylbenzyl)-3-hydroxy-2-phenylquinoline-4-carboxamide) for 1 month to sexually mature male beagle dogs (12 - 16 months of age) produced decreases in the size and/or weight of testes and prostate. […] The incidence and severity of these changes were dose-related with 1 of 3, 2 of 3, 2 of 3, 6 of 6 and 3 of 3 male dogs affected at doses of 0.3, 3, 30, 300 or 1000 mg/kg per day, respectively.

testosterone [5] = experiment: Serum/plasma testosterone concentration in male dogs after oral or intravenous dosing; format: in vivo
Description: The ((S)-(-)-N-(α-Ethylbenzyl)-3-hydroxy-2-phenylquinoline-4-carboxamide)-dependent changes in the testes and prostate of male dogs were associated with reductions in serum concentration of testosterone. Testosterone concentrations were reduced after either a single oral dose of 300 mg/kg (3 of 3 dogs) or 25 daily oral doses of 0.3 (1 of 3 dogs), 3 (2 of 3 dogs) or 300 mg/kg ((S)-(-)-N-(α-Ethylbenzyl)-3-hydroxy-2-phenylquinoline-4-carboxamide) (3 of 3 dogs). Serum testosterone was measured on blood samples obtained every 2 hours for 24 hours after the single dose and every 20 minutes for 4 hours beginning approximately 2 hours after the last of the 25 daily doses. The reductions in serum testosterone observed after one or 25 daily doses of 300 mg/kg ((S)-(-)-N-(α-Ethylbenzyl)-3-hydroxy-2-phenylquinoline-4-carboxamide) were reversible in all dogs (6 of 6) within one week after the cessation of dosing.
as §1

luteinizing hormone (LH) = experiment: Serum luteinizing hormone concentration in male dogs; format: in vivo; conditions: single oral dose of 300 mg/kg
Excerpt: as §1

[6] = once daily oral, 1 month, male beagle dogs
[7] = single oral dose of 300 mg/kg, male dogs

For `CC(=O)N(C)C1(c2ccccc2)CCN(CCC[C@]2(c3ccc(Cl)c(Cl)c3)CCCN(C(=O)c3ccccc3)C2)CC1` [(+)-(R)-3-[3-(4-Phenyl-4-N-methylacetamidopiperidin-1-yl)propyl]-3-(3,4-dichlorophenyl)-1-benzoylpiperidine], the “plasma concentration of testosterone” value (testosterone [1]) was “reduced”, the plasma cortisol concentration (cortisol) was “did not lower” and the plasma estradiol concentration (estradiol) was “no effect”.

In the case of `CC[C@H](NC(=O)c1c(OCCCC(=O)O)c(-c2ccccc2)nc2ccccc12)c1ccccc1` [(S)-(-)-N-(α-Ethylbenzyl)-3-(3-carboxy)propoxy-2-phenylquinoline-4-carboxamide], the plasma testosterone concentration (testosterone [2]) is reported as “reduced”.

`CC[C@H](NC(=O)c1c(OCCCN2CCN(c3ccccc3OC)CC2)c(-c2ccccc2)nc2ccccc12)c1ccccc1` [(S)-(-)-N-(α-Ethylbenzyl)-3-[3-[4-(2-methoxyphenyl)piperazin-1-yl]propoxy]-2-phenylquinoline-4-carboxamide] was tested, and the “plasma concentration of testosterone” value (testosterone [1]) was “reduced”, the plasma cortisol concentration (cortisol) was “did not lower” and the plasma estradiol concentration (estradiol) was “no effect”.

In the case of `CC[C@H](NC(=O)c1c(OCC(=O)O)c(-c2ccccc2)nc2ccccc12)c1ccccc1` [(S)-(-)-N-(α-Ethylbenzyl)-3-carboxymethoxy-2-phenylquinoline-4-carboxamide], the “stimulation of testosterone production in vivo by a LH agonist (human chorionic gonadotropin)” value (testosterone production) is reported as “not blocked”, the plasma testosterone concentration (testosterone [2]) is reported as “reduced” and the plasma testosterone (testosterone [2]; single oral doses of 30 to 1000 mg/kg) is reported as “Reductions”. The “plasma LH concentration” value (LH) was “reduced” and the “plasma concentration of testosterone” value (testosterone [1]) was “reduced”.

With `CC[C@H](NC(=O)c1c(O)c(-c2ccccc2)nc2ccccc12)c1ccccc1` [(S)-(-)-N-(α-Ethylbenzyl)-3-hydroxy-2-phenylquinoline-4-carboxamide] the “weights and/or histologic appearance of the reproductive organs” value (reproductive organs [3]) was “no effect”, the “weights and/or histologic appearance of the reproductive organs” value (reproductive organs [4]) was “no effect” and the “inhibition of the enzyme (CYP17A1) in the testosterone synthetic pathway” value (CYP17A1) was “inhibition”. For the same compound, the “plasma concentration of androstenedione” value (androstenedione) was “reduced”, the “plasma concentration of testosterone” value (testosterone [1]) was “reduced” and the “duration of decrease in serum testosterone” value (testosterone [1]; single oral dose of 300 mg/kg, post-dose) was “at least 24 hours”. For the same compound, the “plasma concentration of cortisol” value (cortisol; single oral dose of 300 mg/kg) was “no effect”, the “plasma concentration of estradiol” value (estradiol; single oral dose of 300 mg/kg) was “no effect” and the “male dogs affected (testes and prostate changes)” value (testes and prostate; 0.3 mg/kg per day oral, 1 month) was 1 of 3. The “male dogs affected (testes and prostate changes)” value (testes and prostate; 3 mg/kg per day oral, 1 month) was 2 of 3, the “male dogs affected (testes and prostate changes)” value (testes and prostate; 30 mg/kg per day oral, 1 month) was 2 of 3 and the “male dogs affected (testes and prostate changes)” value (testes and prostate; 300 mg/kg per day oral, 1 month) was 6 of 6. The “male dogs affected (testes and prostate changes)” value (testes and prostate; 1000 mg/kg per day oral, 1 month) was 3 of 3, the “reversibility of testes and prostate changes” value (testes and prostate; male beagle dogs) was “demonstrated” and the “histologic evaluation of prostate” value (testes and prostate; [6]) was “diffuse atrophy of the prostate gland”. The “histologic evaluation of testes” value (testes and prostate; [6]) was “degeneration of the seminiferous epithelium of the testes with depletion of spermatogonia, spermatocytes and spermatids”, the “size and/or weight of testes and prostate” value (testes and prostate; once daily oral, 1 month, sexually mature male beagle dogs) was “decreases” and the “dogs with reduced serum testosterone concentration” value (testosterone [5]; 25 daily oral doses of 0.3 mg/kg) was 1 of 3. For the same compound, the “dogs with reduced serum testosterone concentration” value (testosterone [5]; 25 daily oral doses of 3 mg/kg) was 2 of 3, the “dogs with reduced serum testosterone concentration” value (testosterone [5]; 25 daily oral doses of 300 mg/kg) was 3 of 3 and the “dogs in which reductions in serum testosterone were reversible” value (testosterone [5]; after one or 25 daily doses of 300 mg/kg, within one week after cessation of dosing) was 6 of 6. For the same compound, the “dogs with reduced serum testosterone concentration” value (testosterone [5]; single oral dose of 300 mg/kg) was 3 of 3, the “reversibility of decrease in serum testosterone” value (testosterone [5]; [7]) was “reversible” and the “serum concentration of testosterone” value (testosterone [5]; [7]) was “rapid and marked decrease”. For the same compound, the “serum concentration of luteinizing hormone (LH)” value (luteinizing hormone (LH)) was “reduction”.

— patent EP1146873B1, “ANTI-ANDROGENS AND METHODS FOR TREATING DISEASE” (SMITHKLINE BEECHAM CORPORATION, priority 1999, dated 2000)
